Measurements from patent US7034035B2, “Fungicidal mono-, bi-, and tri-cycloheteroalkyl amides and their compositions, methods of use and preparation” (priority 1999, dated 2006).
Like-named read-outs stand apart in the source and are kept apart here.

Tests used:
[1] = system: Phytophthora infestans—PHYTIN; assay: whole plant or invertebrate; type: in vivo; details: for PHYTIN in vivo 1 Day Protectant: tomato (cultivar Rutgers), sprayed at 100 ppm, inoculated after 24 hours, control of fungal infection vs untreated plants; for pest or weed control at 100 ppm: Phytophthora, in Solanum lycopersicum, 24 h, read-out: PHYTIN in vivo 1 Day Protectant
[2] = system: Magnaporthe grisea (Pyricularia oryzae—PYRIOR); assay: microbe, parasite or virus in culture; type: cell-based; details: for PYRIOR in vitro Growth Inhibition: in vitro fungal growth; for inhibition of growth at 25 µg/mL: Pyricularia oryzae, read-out: PYRIOR in vitro Growth Inhibition
Septoria tritici—SEPTTR = assay: Leaf Blotch of Wheat, in vivo whole plant, 24 Hour Protectant; details: inoculated after 24 hours; for pest or weed control at 100 ppm: Zymoseptoria tritici, read-out: SEPTTR in vivo 1 Day Protectant
[3] = system: Stagonospora nodorum (Leptosphaeria nodorum—LEPTNO); assay: Inhibition of in vitro fungal growth, LEPTNO; type: cell-based; design: inhibition of growth: dose or concentration left out as unconfirmed; details: for inhibition of growth: Leptosphaeria, in vitro fungal growth
[4] = system: Leptosphaeria nodorum—LEPTNO; assay: Glume Blotch of Wheat, in vivo whole plant, 24 Hour Protectant; details: inoculated after 24 hours; for pest or weed control at 100 ppm: Leptosphaeria, 24 h, read-out: LEPTNO in vivo 1 Day Protectant
[5] = system: Phytophthora infestans (PHYTIN); assay: microbe, parasite or virus in culture; type: cell-based; details: for PHYTIN in vitro Growth Inhibition: in vitro fungal growth; for inhibition of growth at 25 µg/mL: Phytophthora infestans, read-out: PHYTIN in vitro Growth Inhibition
Ustilago maydis (USTIMA) = assay: microbe, parasite or virus in culture; type: cell-based; details: for inhibition of growth at 25 µg/mL: Mycosarcoma maydis, read-out: USTIMA in vitro Growth Inhibition
[6] = system: Rhizoctonia solani (RHIZSO); assay: microbe, parasite or virus in culture; type: cell-based; details: for inhibition of growth at 25 µg/mL: Rhizoctonia solani, read-out: RHIZSO in vitro Growth Inhibition
[7] = system: Puccinia recondita—PUCCRT; assay: Brown Rust of Wheat, in vivo whole plant, 24 Hour Protectant; details: inoculated after 24 hours; for pest or weed control at 100 ppm: Puccinia, read-out: PUCCRT in vivo 1 Day Protectant
[8] = system: Mycosphaerella graminicola (Septoria tritici—SEPTTR); assay: Inhibition of in vitro fungal growth, SEPTTR; type: cell-based; design: inhibition of growth: dose or concentration left out as unconfirmed; details: for inhibition of growth: Zymoseptoria tritici, in vitro fungal growth
Erysiphe graminis—ERYSGT = assay: Powdery Mildew of Wheat, in vivo whole plant, 24 Hour Protectant; details: for ERYSGT in vivo 1 Day Protectant: wheat (cultivar Monon), sprayed at 100 ppm, inoculated after 24 hours, control of fungal infection vs untreated plants; for pest or weed control at 100 ppm: Erysiphe, in Triticum aestivum, 24 h, read-out: ERYSGT in vivo 1 Day Protectant
[9] = wheat (cultivar Yuma), sprayed at 100 ppm, control of fungal infection vs untreated plants
[10] = wheat plants sprayed at 100 ppm, control vs untreated plants

C[C@H]1C2CC([C@H]3CCC[C@@H]23)[C@@H]1NC(=O)c1ncccc1O (stereo partly drawn) [Compound 207]
PHYTIN in vivo 1 Day Protectant [1]: − (<25% control of fungal infection)
PYRIOR in vitro Growth Inhibition [2]: + (at least 80% growth inhibition)
SEPTTR in vivo 1 Day Protectant (Septoria tritici—SEPTTR; [9]): − (<25% control of fungal infection)
LEPTNO in vitro Growth Inhibition [3]: + (key: +: at least 80% growth inhibition; −: less than 80% growth inhibition)
LEPTNO in vivo 1 Day Protectant [4, 9]: − (<25% control of fungal infection)
PHYTIN in vitro Growth Inhibition [5]: − (less than 80% growth inhibition)
USTIMA in vitro Growth Inhibition (Ustilago maydis (USTIMA)): − (key: +: at least 80% growth inhibition; −: less than 80% growth inhibition)
RHIZSO in vitro Growth Inhibition [6]: − (key: +: at least 80% growth inhibition; −: less than 80% growth inhibition)
PUCCRT in vivo 1 Day Protectant [7, 9]: − (<25% control of fungal infection)
SEPTTR in vitro Growth Inhibition [8]: + (key: +: at least 80% growth inhibition; −: less than 80% growth inhibition)
ERYSGT in vivo 1 Day Protectant (Erysiphe graminis—ERYSGT): − (<25% control of fungal infection)

Cc1ccnc(C(=O)NC2C(=O)OC(=O)[C@H](Cc3ccccc3)[C@@H](OC(=O)C(C)C)[C@H](C)OC2=O)c1O (stereo partly drawn) [Compound 237]
pest or weed control at 100 ppm [1]: < 25%
inhibition of growth at 25 µg/mL [2]: < 80%
pest or weed control at 100 ppm (Septoria tritici—SEPTTR; [9]): 25 to 74%
inhibition of growth [3]: < 80%
pest or weed control at 100 ppm [4, 9]: 25 to 74%
melting point: 122 to 134 °C
inhibition of growth at 25 µg/mL [5]: < 80%
inhibition of growth at 25 µg/mL (Ustilago maydis (USTIMA)): < 80%
inhibition of growth at 25 µg/mL [6]: < 80%
pest or weed control at 100 ppm [7, 9]: 75 to 100%
inhibition of growth [8]: < 80%
pest or weed control at 100 ppm (Erysiphe graminis—ERYSGT): < 25%

COc1ccnc(C(=O)NC2CC(C)(C)C(OC(=O)c3cccc(Cl)n3)C(C)(C)C2)c1O (stereo not drawn) [Compound 269]
melting point: 55 to 56 °C
USTIMA in vitro Growth Inhibition (Ustilago maydis (USTIMA)): − (key: +: at least 80% growth inhibition; −: less than 80% growth inhibition)
RHIZSO in vitro Growth Inhibition [6]: − (key: +: at least 80% growth inhibition; −: less than 80% growth inhibition)

COc1ccnc(C(=O)N[C@@H]2CC3CC2[C@@H](C(=O)OC(C)C)C3)c1O (stereo partly drawn) [Compound 298]
pest or weed control at 100 ppm [1]: < 25%
inhibition of growth at 25 µg/mL [2]: < 80%
pest or weed control at 100 ppm (Septoria tritici—SEPTTR; [9]): 25 to 74%
inhibition of growth [3]: < 80%
pest or weed control at 100 ppm [4, 9]: 25 to 74%
inhibition of growth at 25 µg/mL [5]: < 80%
inhibition of growth at 25 µg/mL (Ustilago maydis (USTIMA)): < 80%
inhibition of growth at 25 µg/mL [6]: > 80%
pest or weed control at 100 ppm [7, 9]: 25 to 74%
inhibition of growth [8]: < 80%
pest or weed control at 100 ppm (Erysiphe graminis—ERYSGT): < 25%

COc1ccnc(C(=O)Nc2cccc(CC3CC(C)(C)OC(C)(C)C3)c2)c1O [Compound 460]
pest or weed control at 100 ppm [1]: < 25%
pest or weed control at 100 ppm (Septoria tritici—SEPTTR; [10]): 25 to 74%
pest or weed control at 100 ppm [4, 10]: 25 to 74%
melting point: 149 to 153 °C
pest or weed control at 100 ppm [7, 10]: 25 to 74%
pest or weed control at 100 ppm (Erysiphe graminis—ERYSGT): 25 to 74%

CC(C)C(=O)O[C@H]1[C@H](C)OC(=O)[C@@H](NC(=O)c2cccnc2O)COC(=O)[C@@H]1Cc1ccccc1 [Compound 523]
pest or weed control at 100 ppm [1]: 25 to 74%
pest or weed control at 100 ppm (Septoria tritici—SEPTTR; [10]): 25 to 74%
pest or weed control at 100 ppm [4, 10]: 75 to 100%
melting point: 188 to 190 °C (dec.)
pest or weed control at 100 ppm [7, 10]: 25 to 74%
pest or weed control at 100 ppm (Erysiphe graminis—ERYSGT): 25 to 74%

CC1(C)CC(NC(=O)c2ccnnc2O)CC(C)(C)C1 [Compound 539]
pest or weed control at 100 ppm [1]: < 25%
pest or weed control at 100 ppm (Septoria tritici—SEPTTR; [10]): 25 to 74%
pest or weed control at 100 ppm [4, 10]: 25 to 74%
melting point: 263 to 265 °C
pest or weed control at 100 ppm [7, 10]: 25 to 74%
pest or weed control at 100 ppm (Erysiphe graminis—ERYSGT): < 25%

N-(3-Hydroxy-4-Methoxy-2-Pyridylcarbonyl)-2-Amino-2-Deoxy-alpha-D-Glucopyranose [Compound 334]
PHYTIN in vivo 1 Day Protectant [1]: − (<25% control of fungal infection)
PYRIOR in vitro Growth Inhibition [2]: − (less than 80% growth inhibition)
SEPTTR in vivo 1 Day Protectant (Septoria tritici—SEPTTR; [9]): − (<25% control of fungal infection)
LEPTNO in vitro Growth Inhibition [3]: − (key: +: at least 80% growth inhibition; −: less than 80% growth inhibition)
LEPTNO in vivo 1 Day Protectant [4, 9]: + (25-74% control of fungal infection)
PHYTIN in vitro Growth Inhibition [5]: − (less than 80% growth inhibition)
USTIMA in vitro Growth Inhibition (Ustilago maydis (USTIMA)): − (key: +: at least 80% growth inhibition; −: less than 80% growth inhibition)
RHIZSO in vitro Growth Inhibition [6]: − (key: +: at least 80% growth inhibition; −: less than 80% growth inhibition)
PUCCRT in vivo 1 Day Protectant [7, 9]: − (<25% control of fungal infection)
SEPTTR in vitro Growth Inhibition [8]: − (key: +: at least 80% growth inhibition; −: less than 80% growth inhibition)
ERYSGT in vivo 1 Day Protectant (Erysiphe graminis—ERYSGT): − (<25% control of fungal infection)
